Test results taken from patent US10314313B2, “Antimicrobial materials exhibiting synergistic efficacy” (CORNING INCORPORATED, priority 2015, dated 2019).

How the values were obtained:
bacteria = settings: cited from earlier work
marine organisms = settings: cited from earlier work
mildew = experiment: Amount of biocide necessary to inhibit fungi growth, mildew (FIG. 2); type: cell-based
Procedure: (§1) The amount of ZnPT and copper-containing glass necessary to inhibit fungi growth was evaluated.

algae = settings: in combination with Cu; cited from earlier work
fungi = settings: alone
mold = experiment: Amount of biocide necessary to inhibit fungi growth, mold (FIG. 1); type: cell-based
Procedure: as §1

N#Cc1c(-c2ccc(Cl)cc2)[nH]c(C(F)(F)F)c1Br [Tralopyril, 4-bromo-2-(4-chlorophenyl)-5-(trifluoromethyl)-1H-pyrrole-3-carbonitrile]
activity against bacteria (bacteria): not sufficient

[O-][n+]1ccccc1[S][Cu][S]c1cccc[n+]1[O-] [CuPT]
toxicity to marine organisms (marine organisms): more toxic than ZnPT

Zinc pyrithione [ZnPT]
amount needed to reduce mildew growth (mildew): 100 g/gallon
algaecide activity, concentration range (algae): 1-100 ppm (μg/L)
inhibition of fungi (fungi): no inhibition of fungi
amount needed to reduce mold growth (mold): 10 g/gallon
